Source: paper PMC10343472, “Cyclopentenylcytosine (CPE-C): In Vitro and In Vivo Evaluation as an Antiviral against Adenoviral Ocular Infections” (Molecules, 2023)
Marks after values point to notes of the source that are not given here.

Legend:
[1] = signs of systemic toxicity in the rabbit studies after topical ocular administration; format: in vivo; details: topical ocular administration in the doses given
Text: Like 2′,3′-dideoxycytidine (ddC; zalcitabine), the most important unresolved issue affecting the future commercial development of CPE-C is systemic safety. The untimely deaths reported in 1995 of two cancer patients treated with intravenous CPE-C [35] raises serious concerns for the treatment of a self-limited non-blinding ocular infection. […] Therefore, the challenge for a pharmaceutical company will be to generate convincing and reassuring systemic safety data following topical administration. Given the negative clinical history associated with this compound, a persuasive package of unambiguous data will be required to convince appropriate governmental regulatory agencies to grant approval for the proposed ocular indication for CPE-C as the first topical anti-adenoviral drug.

[2] = set-up: method as in PMID 7554044; details: treatment of solid tumors; intravenous; cited from earlier work
HAdV5 = assay: Ad5/NZW rabbit ocular replication model; format: in vivo, New Zealand white (NZW) rabbits; details: for number of HAdV5-positive cultures per group on days 1, 3, 4, 5, 7 and 14 compared with saline control: Fisher Exact Test, p < 0.05; for reduction of the duration of shedding: vs saline control; for Duration of HAdV5 Shedding, Mean ± Sd: n = 20; for Mean ± Sd Combined HAdV5 Ocular Titers, Early Phase (Days 1–5) / Mean ± Sd Combined HAdV5 Ocular Titers, Late Phase (Days 7–14): n = 80
Experimental: Using the Ad5/NZW rabbit ocular replication model, the current study was performed in duplicate trials using a total of 40 rabbits (20 per trial). Following the systemic and topical anesthesia described above, the rabbits were topically inoculated with 50 µL (1.5 × 10^6 PFU/eye) of HAdV5 in both eyes after corneal epithelial scarification (12 cross-hatched strokes of a #25 sterile needle). Twenty-four hours later, the rabbits were randomly assigned to one of four topical treatment groups (n = 10): (1) 3% CPE-C 4X/day, (2) 3% CPE-C 2X/day, (3) 0.5% Cidofovir 2X/day, and (4) Saline Control 4X/day. Rabbits were treated topically in both eyes according to the above treatment regimens for 7 days. The CPE-C ointments were administered as described above in the ocular toxicity study. Cidofovir and saline were administered as 37 µL aqueous drops. Following topical anesthesia with 0.5% proparacaine, ocular swabbing to recover HAdV5 from the tear film and corneal and conjunctival surfaces was performed on days 0, 1, 3, 4, 5, 7, 9, 11, and 14 after inoculation. The cultures were taken at least 1 h after the final dose of antiviral on the days the antivirals were administered. The swabs from each eye were placed individually into tubes containing 1 mL of tissue culture media and were frozen at −80 °C pending viral plaque assay.
The samples to be assayed were diluted 1:10 for up to 6 dilutions. One-tenth of a ml of both the undiluted sample and the dilutions was inoculated onto duplicate wells of 24-well multiplates containing A549 monolayers. The virus was adsorbed for 3 h at 37 °C in a 5% CO2-water vapor atmosphere. The plates were rocked intermittently to keep the cells from drying. Following adsorption, 1 mL of tissue culture media containing 0.5% methylcellulose was added to each well, and the plates were incubated at 37 °C in a 5% CO2-water vapor atmosphere. After the appropriate incubation period, the cells were fixed and stained with 0.5% gentian violet in formalin. The plates were dried, and the number of plaques per well was counted under a dissecting microscope. The viral titers were then calculated and expressed as plaque-forming units per milliliter (PFU/mL).
The in vitro EC50 data was analyzed with Two-Sample T-Tests using Minitab (Minitab Inc., State College, PA, USA) statistical software Version 21. Following the completion of both trials in the in vivo antiviral efficacy study, the data from each trial were analyzed statistically using Minitab and GraphPad online (https://www.graphpad.com/quickcalcs/contingency1/ (accessed on 16 February 2023)). […] Significance was established at the p ≤ 0.05 confidence level.

NZW rabbit eyes = assay: ocular toxicity in Draize rabbit model; format: in vivo, New Zealand white (NZW) rabbits; set-up: key to Maximum Mean Total Score: Draize/MMTS ocular toxicity score; as to Draize irritation class: key: N = Non-Irritating; PN = Practically Non-Irritating
Experimental: CPE-C was evaluated for ocular toxicity using the standard Draize ocular scoring method which has been in use to determine the toxicity of cosmetics and chemicals since 1944 [39]. CPE-C ointments (3%, 2%, 1%, 0.5%) were administered topically 4 times daily for 4 days in uninfected, non-scarified NZW rabbit eyes (n = 2). Additionally, the 3% CPE-C concentration was also evaluated in rabbit eyes after corneal scarification. Overall, CPE-C, in concentrations up to 3% in an Aquaphor vehicle, appeared to be non-toxic to NZW rabbit eyes. […] There appeared to be no inhibition of corneal epithelial wound healing by the CPE-C in eyes that had undergone corneal epithelial scarification. Since the 3% CPE-C was the highest non-toxic concentration tested, this concentration was chosen for the in vivo antiviral efficacy testing in the Ad5/NZW rabbit ocular replication model.
CPE-C ointment (3%, 2%, 1%, 0.5%) was administered topically 4 times daily for 4 days in uninfected, non-scarified NZW rabbit eyes (n = 2). The CPE-C ointments were administered in approximately ½ inch strips per dose via a syringe with a 19-gauge cannula attached. The eyes were closed and gently rubbed to produce even distribution of antiviral over the entire ocular surface. The 3% CPE-C concentration was also evaluated in rabbit eyes after corneal scarification (general anesthesia with 40 mg/kg of ketamine and 4 mg/kg of xylazine administered intramuscularly and topical ocular anesthesia with proparacaine followed by 12 cross-hatched strokes with a #25 needle). All eyes were evaluated in a masked fashion for ocular toxicity using the Draize and MMTS scoring system on days 2, 3, and 4.

[3] = set-up: method as in PMID 11431446; details: topical ocular; cited from earlier work
[4] = 3% ointment topical 2X/Day for 7 days
[5] = 3% ointment topical 4X/Day for 7 days
[6] = 1% ointment 4 times daily, non-scarified eyes, Day 2
[7] = 1% ointment 4 times daily, non-scarified eyes, Day 3
[8] = 1% ointment 4 times daily, non-scarified eyes, Day 4
[9] = 2% ointment 4 times daily, non-scarified eyes, Day 2
[10] = 2% ointment 4 times daily, non-scarified eyes, Day 3
[11] = 2% ointment 4 times daily, non-scarified eyes, Day 4
[12] = 3% ointment 4 times daily, non-scarified eyes, Day 2
[13] = 0.5% drops topical 2X/Day for 7 days

Structure (SMILES): Nc1ccn([C@@H]2C=C(CO)[C@@H](O)[C@H]2O)c(=O)n1 [CPE-C, Cyclopentenylcytosine]
- signs of systemic toxicity (decreased appetite, weight loss, wasting, death) [1]: no obvious signs of systemic toxicity
- patient deaths during clinical trials [2]: Two patient deaths from refractory hypotension
- number of HAdV5-positive cultures per group on days 1, 3, 4, 5, 7 and 14 compared with saline control (HAdV5; 3% 2X/day): significantly reduced
- number of HAdV5-positive cultures per group on days 1, 3, 4, 5, 7 and 14 compared with saline control (HAdV5; 3% 4X/day): significantly reduced
- reduction of the duration of shedding (HAdV5; 3% administered 2X per day for 7 days): 5.6 days
- reduction of the duration of shedding (HAdV5; 3% administered 4X per day for 7 days): 6.8 days
- HAdV5-Positive Eye Cultures/Total, Early Phase (Days 1–5) (HAdV5; [4]): 29/80
- HAdV5-Positive Eye Cultures/Total, Early Phase (Days 1–5), percent (HAdV5; [4]): 36%
- HAdV5-Positive Eye Cultures/Total, Late Phase (Days 7–14) (HAdV5; [4]): 2/80
- HAdV5-Positive Eye Cultures/Total, Late Phase (Days 7–14), percent (HAdV5; [4]): 3%
- HAdV5-Positive Eye Cultures/Total, Overall (Days 1–14) (HAdV5; [4]): 31/160
- HAdV5-Positive Eye Cultures/Total, Overall (Days 1–14), percent (HAdV5; [4]): 19%
- Duration of HAdV5 Shedding, Mean ± Sd (HAdV5; [4]): 2.5 ± 2.3 ^d Days
- Mean ± Sd Combined HAdV5 Ocular Titers, Early Phase (Days 1–5) (HAdV5; [4]): 3.5 ± 18.1 × 10^1 b Log10 PFU/mL
- Mean ± Sd Combined HAdV5 Ocular Titers, Late Phase (Days 7–14) (HAdV5; [4]): 3.6 ± 25.2 × 10^0 c Log10 PFU/mL
- HAdV5-Positive Eye Cultures/Total, Late Phase (Days 7–14) (HAdV5; [5]): 6/80
- HAdV5-Positive Eye Cultures/Total, Late Phase (Days 7–14), percent (HAdV5; [5]): 8%
- HAdV5-Positive Eye Cultures/Total, Overall (Days 1–14) (HAdV5; [5]): 24/160
- HAdV5-Positive Eye Cultures/Total, Overall (Days 1–14), percent (HAdV5; [5]): 15%
- Duration of HAdV5 Shedding, Mean ± Sd (HAdV5; [5]): 1.3 ± 1.6 ^d Days
- Mean ± Sd Combined HAdV5 Ocular Titers, Early Phase (Days 1–5) (HAdV5; [5]): 1.6 ± 4.8 × 10^1 b Log10 PFU/mL
- Mean ± Sd Combined HAdV5 Ocular Titers, Late Phase (Days 7–14) (HAdV5; [5]): 0.9 ± 4.4 × 10^0 c Log10 PFU/mL
- Maximum Mean Total Score (NZW rabbit eyes; 0.5% ointment 4 times daily, non-scarified eyes, Day 2): 1.0
- Maximum Mean Total Score (NZW rabbit eyes; 0.5% ointment 4 times daily, non-scarified eyes, Day 3): 1.0
- Maximum Mean Total Score (NZW rabbit eyes; 0.5% ointment 4 times daily, non-scarified eyes, Day 4): 1.0
- Draize irritation class (NZW rabbit eyes; [6]): N
- Maximum Mean Total Score (NZW rabbit eyes; [6]): 0.0
- Draize irritation class (NZW rabbit eyes; [7]): N
- Maximum Mean Total Score (NZW rabbit eyes; [7]): 0.0
- Draize irritation class (NZW rabbit eyes; [8]): N
- Maximum Mean Total Score (NZW rabbit eyes; [8]): 0.0
- Draize irritation class (NZW rabbit eyes; [9]): N
- Maximum Mean Total Score (NZW rabbit eyes; [9]): 0.0
- Draize irritation class (NZW rabbit eyes; [10]): N
- Maximum Mean Total Score (NZW rabbit eyes; [10]): 0.0
- Draize irritation class (NZW rabbit eyes; [11]): N
- Maximum Mean Total Score (NZW rabbit eyes; [11]): 0.0
- Maximum Mean Total Score (NZW rabbit eyes; 3% ointment 4 times daily, eyes with scarification, Day 2): 1.0
- Maximum Mean Total Score (NZW rabbit eyes; 3% ointment 4 times daily, eyes with scarification, Day 3): 1.0
- Maximum Mean Total Score (NZW rabbit eyes; 3% ointment 4 times daily, eyes with scarification, Day 4): 1.0
- Draize irritation class (NZW rabbit eyes; [12]): N
- Maximum Mean Total Score (NZW rabbit eyes; [12]): 0.0
- Maximum Mean Total Score (NZW rabbit eyes; 3% ointment 4 times daily, non-scarified eyes, Day 3): 2.0
- Maximum Mean Total Score (NZW rabbit eyes; 3% ointment 4 times daily, non-scarified eyes, Day 4): 2.0
- ocular irritation by Draize scoring (NZW rabbit eyes; 3% ointment, scarified eyes, 4 times daily for 4 days): practically non-irritating
- inhibition of corneal epithelial wound healing (NZW rabbit eyes; eyes that had undergone corneal epithelial scarification): no inhibition
- ocular irritation by Draize scoring (NZW rabbit eyes; rabbit, in vivo): non-irritating or practically non-irritating

Structure (SMILES): Nc1ccn(C[C@@H](CO)OCP(=O)(O)O)c(=O)n1 [Cidofovir, cidofovir, reference compound]
- toxicity leading to discontinuation of development of topical cidofovir in the USA [3]: epiphora due to secondary lacrimal canalicular blockade
- number of HAdV5-positive cultures per group on days 1, 3, 4, 5, 7 and 14 compared with saline control (HAdV5; 0.5% 2X/day): significantly reduced
- HAdV5-positive cultures on day 9 compared with saline control (HAdV5; 0.5% 2X/day, p = 0.0197, FET): significantly fewer
- HAdV5-Positive Eye Cultures/Total, Early Phase (Days 1–5) (HAdV5; [13]): 26/80
- HAdV5-Positive Eye Cultures/Total, Early Phase (Days 1–5), percent (HAdV5; [13]): 33%
- HAdV5-Positive Eye Cultures/Total, Late Phase (Days 7–14) (HAdV5; [13]): 1/80
- HAdV5-Positive Eye Cultures/Total, Late Phase (Days 7–14), percent (HAdV5; [13]): 1%
- HAdV5-Positive Eye Cultures/Total, Overall (Days 1–14) (HAdV5; [13]): 27/160
- HAdV5-Positive Eye Cultures/Total, Overall (Days 1–14), percent (HAdV5; [13]): 17%
- Duration of HAdV5 Shedding, Mean ± Sd (HAdV5; [13]): 2.0 ± 1.8 ^d Days
- Mean ± Sd Combined HAdV5 Ocular Titers, Early Phase (Days 1–5) (HAdV5; [13]): 6.7 ± 12.7 × 10^0 b Log10 PFU/mL
- Mean ± Sd Combined HAdV5 Ocular Titers, Late Phase (Days 7–14) (HAdV5; [13]): 0.3 ± 2.2 × 10^0 c Log10 PFU/mL
